Results as given in patent US20250206779A1, “ANGIOTENSIN-(1-9) ANALOGUE BASED ON D AMINO ACIDS, PHARMACEUTICAL COMPOSITIONS AND USES THEREOF” (UNIVERSIDAD DE CHILE, priority 2021, published 2025).
Where a SMILES comes first, the peptide text is derived from it. [ ]: non-standard residue; d: D form.

Legend:
[1] = tested on: spontaneously hypertensive rats (SHR); assay: Cardiac inflammation by monocyte infiltration in SHR, ED-1 immunohistochemistry; type: in vivo, rat; conditions: SHR, 1,200 ng/kg/min, 14 days
Procedure: (§1) Experimental animal model. All procedures were performed in accordance with the Guide for the Care and Use of Laboratory Animals published by the U.S. National Institutes of Health (NIH Publication 85 23, 1985) and approved by our Institutional Bioethics Committee. The animals were housed under the continuous professional monitoring of the Medical Veterinary staff in the animal facility of the Pontificia Universidad Católica de Chile, under the following conditions: 12-h light-dark cycle; 21° C. ambient temperature; 50% humidity; adequate ventilation; noise-free environment; and food and water ad libitum. Male spontaneously hypertensive rats (SHR, age 12 weeks) and normotensive Wistar Kyoto rats (WKY, 12 weeks age) were used. […] Systolic blood pressure (SBP), diastolic blood pressure (DBP) and body weight (BW) were measured at the end of the treatment period and the animals were then sacrificed.
Evaluation of cardiac inflammation by monocyte infiltration. Monocyte infiltration was assessed as a marker of cardiac inflammation. Monocytes were detected by immunohistochemistry using ED-1. […] In hypertense SHR increased ED-1 positive cells was detected in the hearts, indicating the presence of monocyte infiltration, a marker of cardiac inflammation.

[2] = tested on: spontaneously hypertensive rats (SHR); assay: Fibroblast proliferation in cardiac tissue of SHR, Ki67 immunohistochemistry; type: in vivo, rat; conditions: SHR, 1,200 ng/kg/min, 14 days
Procedure: as §1, with “libitum.” for “libitum. Male spontaneously hypertensive rats (SHR, age 12 weeks) and normotensive Wistar Kyoto rats (WKY, 12 weeks age) were used.”
Immunohistochemistry for Ki67. Proliferation of fibroblast, another marker of fibrosis, was assessed by measuring the presence of Ki-67 positive nuclei. […] Two blinder researchers counted manually positive cells in 10 high-power fields (×40). […] The percentage of positive Ki67 cells was calculated. As observed with the above cardiac fibrosis marker, collagen content assessed by picrosirius red staining, in hypertensive SHR, an increase in fibroblast with Ki-67 positive nuclei were found, confirming the occurrence of cardiac fibrosis.

[3] = tested on: cardiac myocytes isolated from neonatal Sprague-Dawley rat ventricles; assay: Norepinephrine-induced cardiomyocyte hypertrophy, western blot of β-MHC and ANP; type: cell-based; conditions: 1, 10 or 100 μM peptide, 10 μM norepinephrine
Procedure: Cardiac myocytes were isolated from neonatal Sprague-Dawley rat ventricles. Cardiac myocytes were plated at 70% final density in gelatin-coated wells (12-well plates) or in 60-mm Petri dishes and maintained at 37° C. in a humidified atmosphere of 5% CO2/95% air for 24 h in Dulbecco's Modified Eagle's medium [(DMEM)/M199](4:1) containing 10% fetal bovine serum and 5% fetal calf serum. Serum was withdrawn 24 h before preincubation with 1, 10 or 100 μM retro-inverse angiotensin-(1-9) for 1 h; then, 10 μM norepinephrine (Sigma, St Louis, Missouri, USA) were added and the cultures were incubated for 24 h. Then cells were washed with PBS at 4° C. and then cells were lysed with 50 μL of RIPA lysis buffer (Tris-HCl 10 mM pH 7.4, EDTA 5 mM, NaCl 50 mM, deoxycholic acid 1%, Triton X-100 1% v/v) supplemented with phosphatase and protease inhibitors (Roche). After centrifugation at 12,000 r.p.m. for 15 min at 4° C., the supernatat was recovered; total protein content was determined by using Bradford (BioRad protein assay, BioRad, Hercules, CA, USA). Proteins were denatured in SDS-PAGE 4× buffer and resolved in 12% PAGE-SDS. After electrotransference, beta-myosin heavy chain (β-MHC) and atrial natriuretic peptide (ANP) were used as hypertrophic markers. β-tubulin was used as loading control. As expected, norepinephrine 10 μM for […], a cardiomyocyte hypertrophy inducer, triggered β-MHC and ANP increase (FIG. 3).

## CC[C@@H](C)[C@@H](NC(=O)[C@@H](Cc1c[nH]cn1)NC(=O)[C@H]1CCCN1C(=O)[C@@H](Cc1ccccc1)NC(=O)[C@H](N)Cc1c[nH]cn1)C(=O)N[C@H](Cc1ccc(O)cc1)C(=O)N[C@@H](C(=O)N[C@H](CCCNC(=N)N)C(=O)N[C@H](CC(=O)O)C(=O)O)C(C)C [retro-inverse angiotensin-(1-9), NH2-^DH^DF^DP^DH^DI^DY^DV^DR^DD-COOH] (H-[dH][dF][dP][dH][dI][dY][dV][dR][dD]-OH)
[1]
  accumulation of ED-1 positive cells in cardiac tissue: completely revert
[2]
  increase of fibroblast with Ki-67 positive nuclei induced by hypertension: reversed the increase
[3]
  increase of ANP induced by norepinephrine: inhibited, in a dose response manner
  increase of β-MHC induced by norepinephrine: inhibited, in a dose response manner
